#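 Five concentrations, 48 hours, 96-well plates. GI50 = concentration required for 50% inhibition of growth. TGI marks complete inhibition of growth.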
# Columns and labels:
# Test in all cases: NCI anticancer screen, dose series, 48 h
# SF-268 CNS = system: SF-268 CNS
# IGROV1 ovarian = system: IGROV1 ovarian
# ACHN renal = system: ACHN renal
# NCI-H460 lung = system: NCI-H460 lung
# T-47D breast = system: T-47D breast
# HS 578T breast = system: HS 578T breast
# NCI-H226 lung = system: NCI-H226 lung
# TK-10 renal = system: TK-10 renal
# SNB-75 CNS = system: SNB-75 CNS
# SN12C renal = system: SN12C renal
# SR leukemia = system: SR leukemia
# MDA-N = system: MDA-N
# CAKI-1 renal = system: CAKI-1 renal
# K-562 leukemia = system: K-562 leukemia
# COLO 205 colon = system: COLO 205 colon
# NCI/ADR-RES ovarian = system: NCI/ADR-RES ovarian
# HCT-15 colon = system: HCT-15 colon
# MDA-MB-231 breast = system: MDA-MB-231 breast
# BT-549 breast = system: BT-549 breast
SMILES,TGI (SF-268 CNS),TGI (IGROV1 ovarian),TGI (ACHN renal),TGI (NCI-H460 lung),TGI (T-47D breast),TGI (HS 578T breast),TGI (NCI-H226 lung),TGI (TK-10 renal),TGI (SNB-75 CNS),TGI (SN12C renal),TGI (SR leukemia),TGI (MDA-N),TGI (CAKI-1 renal),TGI (K-562 leukemia),TGI (COLO 205 colon),TGI (NCI/ADR-RES ovarian),TGI (HCT-15 colon),TGI (MDA-MB-231 breast),TGI (BT-549 breast),GI50 (K-562 leukemia)
CCOP(=O)(C=C=C(C)C)OCC,> 100 µM,> 100 µM,> 100 µM,> 100 µM,> 100 µM,> 100 µM,> 100 µM,> 100 µM,> 100 µM,> 100 µM,> 100 µM,> 100 µM,> 100 µM,> 100 µM,> 100 µM,> 100 µM,> 100 µM,,,
CN(C)c1nc(NN)c2c(-c3ccccc3)c(-c3ccccc3)oc2n1,> 100 µM,> 100 µM,> 100 µM,,> 100 µM,> 100 µM,> 100 µM,> 100 µM,> 100 µM,> 100 µM,> 100 µM,,> 100 µM,> 100 µM,> 100 µM,> 100 µM,> 100 µM,> 100 µM,,
COc1ccc2oc(C(=O)N3CC(CCl)c4ccc([N+](=O)[O-])cc43)cc2c1 (stereo not given),53.8 µM,29.5 µM,> 100 µM,> 100 µM,> 100 µM,62.2 µM,36.8 µM,> 100 µM,79.3 µM,,> 100 µM,,45.6 µM,> 100 µM,> 100 µM,> 100 µM,,54.5 µM,> 100 µM,
O=C(NCCO)Nc1c(C(F)(F)F)cc(-c2ccccc2)[nH]c1=O,,> 100 µM,> 100 µM,> 100 µM,> 100 µM,,> 100 µM,> 100 µM,,> 100 µM,,> 100 µM,> 100 µM,> 100 µM,> 100 µM,> 100 µM,> 100 µM,> 100 µM,> 100 µM,
COc1ccc2c(c1)OC[C@@H]1c3cc4c(cc3O[C@H]21)OCO4,> 100 µM,,> 100 µM,> 100 µM,,,> 100 µM,> 100 µM,69.2 µM,,,,> 100 µM,> 100 µM,> 100 µM,,> 100 µM,,,
CCOC(=O)NC(NC(C)CC)(C(F)(F)F)C(F)(F)F (stereo not given),> 100 µM,> 100 µM,> 100 µM,> 100 µM,> 100 µM,> 100 µM,> 100 µM,> 100 µM,> 100 µM,> 100 µM,> 100 µM,> 100 µM,> 100 µM,> 100 µM,> 100 µM,> 100 µM,> 100 µM,> 100 µM,,
NS(=O)(=O)c1ccc(CNc2nc(-c3cccs3)nc3ccc(I)cc23)cc1,61.6 µM,30.6 µM,58.3 µM,29.6 µM,1.81 µM,,40.1 µM,28.1 µM,47.1 µM,57.7 µM,42.8 µM,41.9 µM,22.8 µM,> 100 µM,29.9 µM,77.6 µM,28.9 µM,,27.8 µM,36.7 µM
